One may read the IC50 as the concentration that gives 50% inhibition.

The experiment deals with Tyrosine-protein kinase BTK (Homo sapiens, UniProt Q06187). Briefly: Inhibitory Assay: BTK enzyme evaluation with each compound of examples of the invention was performed by using BTK enzyme inhibition diagnosis kit (Cisbio, Codolet, France). ATP (adenosine triphosphate), BTK, peptide (biotin-Aca-[…]-NH2) and each compound of examples of the invention were mixed, followed by reaction for 30 minutes. Then, EDTA (ethylenediaminetetraacetic acid) was added thereto in order to terminate the reaction. At this time, the EDTA solution contained curopium-containing antibody (antiphosphoresidue antibody) and straptavidin-XL665 (SA-XL665, Cisbio). After incubation for 1 hour, fluorescence was measured. The emission values of 665 nm and 620 nm excited at 337 nm were measured with Envision reader.
Sequence of Tyrosine-protein kinase BTK (Q06187 whole entry): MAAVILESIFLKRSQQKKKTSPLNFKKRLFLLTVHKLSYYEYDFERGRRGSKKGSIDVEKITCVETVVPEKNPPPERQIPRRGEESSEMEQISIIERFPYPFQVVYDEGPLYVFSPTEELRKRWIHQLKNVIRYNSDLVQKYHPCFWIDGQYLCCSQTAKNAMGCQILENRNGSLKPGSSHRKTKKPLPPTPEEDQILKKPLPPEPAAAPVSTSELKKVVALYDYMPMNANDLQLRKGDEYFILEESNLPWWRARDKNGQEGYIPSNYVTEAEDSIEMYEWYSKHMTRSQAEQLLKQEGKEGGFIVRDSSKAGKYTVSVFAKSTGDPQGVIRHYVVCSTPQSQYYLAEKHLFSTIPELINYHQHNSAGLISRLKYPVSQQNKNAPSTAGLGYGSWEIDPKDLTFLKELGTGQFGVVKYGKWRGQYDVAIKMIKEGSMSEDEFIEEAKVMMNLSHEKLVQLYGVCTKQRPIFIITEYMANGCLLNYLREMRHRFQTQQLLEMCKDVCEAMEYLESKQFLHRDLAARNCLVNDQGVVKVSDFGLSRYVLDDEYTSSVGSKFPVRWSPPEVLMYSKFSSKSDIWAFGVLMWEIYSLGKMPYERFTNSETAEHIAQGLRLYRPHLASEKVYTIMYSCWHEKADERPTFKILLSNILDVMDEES
`Cc1cccc(C)c1Nc1n[nH]c2nc(Nc3ccc4c(c3)CNCC4)ncc12` yielded an IC50 of 300 pM.

For the compound `Cc1cccc(C)c1Nc1nn(C)c2nc(Nc3ccc4c(c3)CNCC4)ncc12`, the IC50 came to 600 pM. This IC50 lies about 2-fold higher than the previous one.

`Cc1ccc(NC(=O)Nc2cccc(C(F)(F)F)c2)cc1Nc1nn(C)c2nc(Nc3ccc4c(c3)CNCC4)ncc12` came in with an IC50 of 26700 pM. This IC50 is about 44-fold higher than that of the compound before.

`Cn1nc(Nc2c(Cl)cccc2Cl)c2cnc(Nc3ccc4c(c3)CCNC4)nc21` showed a 50% inhibitory concentration (IC50) of 670 pM. This IC50 lies about 40-fold lower than the previous one.

(Values after ChEMBL document CHEMBL5728637, “Pyrazolopyrimidine derivatives, preparation method thereof, and pharmaceutical composition for use in preventing or treating cancer, autoimmune disease and brain disease containing the same as an active ingredient” (2021).)
